Assay results published in patent publication US9481709B2, “Boropeptide inhibitors of enteropeptidase and their uses in treatment of obesity, overweight and/or diseases associated with an abnormal fat metabolism” (OBE THERAPY BIOTECHNOLOGY, priority 2007, dated 2016).

Key:
[1] = target: T1, Kallikrein from human plasma (Homo sapiens, UniProt P03952); test: Kallikrein assay; assay type: biochemical; settings: in vitro
T1 construct: Kallikrein from human plasma; purchased SIGMA K2638; host or cells: human plasma
Procedure: (§1) 2.2. Thrombin, Trypsin, Kallikrein, Plasmin, Chymotrypsin and Elastase Assay
(§2) Table IV below lists the final concentrations of the tested enzymes and the corresponding substrates, in the determination of the IC50 without inhibitor (positive control) and in inhibition protocols:
(§3) Measurement without Inhibitor (Positive Control)
(§4) In 17 μl of TN, 1 μl of enzyme and 2 μl of substrate was mixed, just before reading; The Absorbance was measured at 405 nm on EnVision (Perkin Elmer).
(§5) Inhibition in 384 Well Plate Small Volume ([…])
(§6) In 15 μl of TN, 1 μl of enzyme and 2 μl of Inhibitor (compound of the invention) at different concentrations were mixed and incubated at RT for 30 minutes; 2 μl of substrate was added, just before reading; The Absorbance was measured at 405 nm on EnVision (Perkin Elmer).

Thrombin = Thrombin (Homo sapiens, UniProt P00734); test: Thrombin
Source text: (§7) Table printed on a drawing sheet, Fig. 5
Head of the field: Thrombin
(§8) The patent's description of the figure: FIG. 5 is a Table showing the IC 50 (in nM) of enteropeptidase, various serine proteases and other enzyme families, in the presence of compounds OBE 1999, OBE 2000, OBE 2001 or OBE 2002.
(§9) First copying reader's note: Each column is one compound; each row gives its IC50 against the named enzyme.
Where the first naming reader finds the target: head: Thrombin

[2] = target: T2, Trypsin from human pancreas (Homo sapiens, UniProt P07477); test: Trypsin assay; assay type: biochemical; settings: in vitro; range printed jointly for trypsin, kallikrein and plasmin
T2 construct: Trypsin from human pancreas; purchased SIGMA T6424; host or cells: human pancreas
Procedure: as §1, §2, §3, §4, §5, §6

Enteropeptidase [3] = target: T3, Enteropeptidase (Homo sapiens, UniProt P98073); test: Enteropeptidase assay (Np Tosyl Gly Pro Arg pNa substrate, absorbance 405 nm); assay type: biochemical; set-up: purchased RD system 1585SE; settings: in vitro, 30 min preincubation at RT
Procedure: 2.1. Enteropeptidase Assay
Activation of the Enteropeptidase
A mix of enteropeptidase at 58.8 nM (final) and thermolysine at 1.58 ng/I (final) in TCN buffer was prepared; the mix was incubated at 37° C. during 30 minutes for activation. Phosphoramidon (10 μM final) was added to stop the activation by thermolysine.
Measurement of Enteropeptidase Activity without Inhibitor (Positive Control)
In 17 μl of TCN, 1 μl of active enzyme (2.9 nm final) and 2 μl Np Tosyl Gly Pro Arg pNa (1 mM final) were mixed, just before reading. The Absorbance was measured at 405 nm on EnVision (Perkin Elmer).
as §5
Target sequence in this assay (P98073 785-1019 limits assumed): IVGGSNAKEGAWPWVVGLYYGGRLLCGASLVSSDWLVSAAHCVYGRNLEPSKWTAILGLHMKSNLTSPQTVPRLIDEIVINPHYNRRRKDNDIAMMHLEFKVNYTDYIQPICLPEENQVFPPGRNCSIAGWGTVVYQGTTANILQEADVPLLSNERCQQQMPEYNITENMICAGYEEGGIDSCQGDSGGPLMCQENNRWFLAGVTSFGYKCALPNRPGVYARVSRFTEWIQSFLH
Target sequence in this assay (P98073 2-784 partner limits assumed): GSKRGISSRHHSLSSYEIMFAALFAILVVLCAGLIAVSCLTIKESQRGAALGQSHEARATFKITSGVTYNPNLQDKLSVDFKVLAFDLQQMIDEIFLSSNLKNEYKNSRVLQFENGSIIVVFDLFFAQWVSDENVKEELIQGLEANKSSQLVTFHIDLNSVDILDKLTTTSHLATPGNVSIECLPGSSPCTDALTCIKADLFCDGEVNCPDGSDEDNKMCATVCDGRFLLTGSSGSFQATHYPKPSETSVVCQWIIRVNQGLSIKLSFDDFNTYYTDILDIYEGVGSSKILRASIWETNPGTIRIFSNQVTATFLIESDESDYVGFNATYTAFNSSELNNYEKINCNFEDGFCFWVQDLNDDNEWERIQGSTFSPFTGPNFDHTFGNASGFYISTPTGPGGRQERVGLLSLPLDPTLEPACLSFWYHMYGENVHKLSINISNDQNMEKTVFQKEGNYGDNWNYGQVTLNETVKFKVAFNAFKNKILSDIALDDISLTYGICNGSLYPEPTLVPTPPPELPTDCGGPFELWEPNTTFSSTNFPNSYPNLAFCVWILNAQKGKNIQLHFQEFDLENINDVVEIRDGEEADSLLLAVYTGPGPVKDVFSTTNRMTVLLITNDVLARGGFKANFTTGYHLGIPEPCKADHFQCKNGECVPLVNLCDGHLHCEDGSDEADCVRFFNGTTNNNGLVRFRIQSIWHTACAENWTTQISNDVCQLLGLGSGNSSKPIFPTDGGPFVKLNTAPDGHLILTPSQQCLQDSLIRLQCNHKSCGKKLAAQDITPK
In 15 μl of TCN, 1 μl of active enzyme and 2 μl of Inhibitor (compound of the invention) at different concentrations were mixed, and incubated at RT (room temperature) for 30 minutes; 2 μl Np Tosyl Gly Pro Arg pNa (1 mM final) was added just before reading. The Absorbance was measured at 405 nm on EnVision (Perkin Elmer).

Kallikrein = Kallikrein (Homo sapiens, UniProt P03952); test: Kallikrein
Source text: as §7
Head of the field: Kallikrein
as §8, §9
Where the first naming reader finds the target: head: Kallikrein

[4] = target: T4, Plasmin from human plasma (Homo sapiens, UniProt P00747); test: Plasmin assay; assay type: biochemical; settings: in vitro
T4 construct: Plasmin from human plasma; purchased SIGMA P1867; host or cells: human plasma
Procedure: as §1, §2, §3, §4, §5, §6

Plasmin = Plasmin (Homo sapiens, UniProt P00747); test: Plasmin
Source text: as §7
Head of the field: Plasmin
as §8, §9
Where the first naming reader finds the target: head: Plasmin

Enteropeptidase [5] = target: T3, Enteropeptidase; test: Enteropeptidase
Source text: as §7
Target sequence in this assay (P98073 2-1019): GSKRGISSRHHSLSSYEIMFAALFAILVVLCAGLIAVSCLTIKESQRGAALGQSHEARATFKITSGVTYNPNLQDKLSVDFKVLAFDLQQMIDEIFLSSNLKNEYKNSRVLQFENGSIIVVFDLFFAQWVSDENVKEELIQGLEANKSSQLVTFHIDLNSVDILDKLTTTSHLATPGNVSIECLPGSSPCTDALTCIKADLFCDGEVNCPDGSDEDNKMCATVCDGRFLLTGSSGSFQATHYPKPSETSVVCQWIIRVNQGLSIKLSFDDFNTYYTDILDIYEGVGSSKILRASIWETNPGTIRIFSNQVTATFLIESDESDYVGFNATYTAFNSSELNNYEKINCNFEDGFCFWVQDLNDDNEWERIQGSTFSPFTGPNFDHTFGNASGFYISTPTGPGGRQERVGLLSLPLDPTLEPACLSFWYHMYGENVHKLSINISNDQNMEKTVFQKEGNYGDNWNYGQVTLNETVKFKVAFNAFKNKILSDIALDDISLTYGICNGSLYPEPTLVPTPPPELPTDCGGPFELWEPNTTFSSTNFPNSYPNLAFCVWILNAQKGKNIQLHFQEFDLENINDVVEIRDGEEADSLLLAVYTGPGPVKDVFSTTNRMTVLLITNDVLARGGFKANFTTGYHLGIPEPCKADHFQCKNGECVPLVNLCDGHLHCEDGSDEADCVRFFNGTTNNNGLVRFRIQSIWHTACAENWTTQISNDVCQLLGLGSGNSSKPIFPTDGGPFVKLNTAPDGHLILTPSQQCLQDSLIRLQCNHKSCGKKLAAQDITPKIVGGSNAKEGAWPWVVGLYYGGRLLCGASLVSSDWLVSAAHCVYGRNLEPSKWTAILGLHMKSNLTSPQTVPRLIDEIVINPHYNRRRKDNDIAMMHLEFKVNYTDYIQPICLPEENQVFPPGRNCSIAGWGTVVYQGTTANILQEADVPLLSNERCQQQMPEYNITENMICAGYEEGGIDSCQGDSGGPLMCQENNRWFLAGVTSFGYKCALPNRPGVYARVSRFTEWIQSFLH
Head of the field: Enteropeptidase
as §8, §9
Where the first naming reader finds the target: head: Enteropeptidase

[6] = target: T5, Thrombin from human plasma (Homo sapiens, UniProt P00734); test: Thrombin assay; assay type: biochemical; settings: in vitro
T5 construct: Thrombin from human plasma; purchased SIGMA T1063; host or cells: human plasma
Procedure: as §1, §2, §3, §4, §5, §6

Trypsin = Trypsin (Homo sapiens, UniProt P07477); test: Trypsin
Source text: as §7
Head of the field: Trypsin
as §8, §9
Where the first naming reader finds the target: head: Trypsin

T1 sequence (P03952 391-638 limits assumed): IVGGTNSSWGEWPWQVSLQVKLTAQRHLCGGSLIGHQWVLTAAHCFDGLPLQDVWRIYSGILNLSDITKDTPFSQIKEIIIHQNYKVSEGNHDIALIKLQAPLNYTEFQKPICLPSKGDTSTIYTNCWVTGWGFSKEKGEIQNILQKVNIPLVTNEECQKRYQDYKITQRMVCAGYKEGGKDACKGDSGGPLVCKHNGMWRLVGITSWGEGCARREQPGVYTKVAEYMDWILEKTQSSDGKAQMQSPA
T1 sequence (P03952 20-390 partner limits assumed): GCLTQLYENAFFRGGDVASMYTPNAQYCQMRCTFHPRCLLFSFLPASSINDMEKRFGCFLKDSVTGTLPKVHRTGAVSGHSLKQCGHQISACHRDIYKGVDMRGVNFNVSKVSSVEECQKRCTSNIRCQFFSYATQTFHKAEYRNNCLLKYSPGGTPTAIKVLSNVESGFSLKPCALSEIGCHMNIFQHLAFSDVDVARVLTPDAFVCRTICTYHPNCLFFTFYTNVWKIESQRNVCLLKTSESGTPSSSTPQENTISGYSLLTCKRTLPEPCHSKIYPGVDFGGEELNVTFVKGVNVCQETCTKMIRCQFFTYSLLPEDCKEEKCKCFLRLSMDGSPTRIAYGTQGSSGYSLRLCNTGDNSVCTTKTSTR
T4 sequence (P00747 581-810 limits assumed): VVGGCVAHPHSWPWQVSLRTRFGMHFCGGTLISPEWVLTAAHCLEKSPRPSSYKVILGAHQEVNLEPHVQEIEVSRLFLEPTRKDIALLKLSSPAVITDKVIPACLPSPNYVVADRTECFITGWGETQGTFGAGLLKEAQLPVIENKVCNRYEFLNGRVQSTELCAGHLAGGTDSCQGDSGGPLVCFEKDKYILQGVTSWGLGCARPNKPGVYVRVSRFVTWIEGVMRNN
T4 sequence (P00747 98-580 partner limits assumed): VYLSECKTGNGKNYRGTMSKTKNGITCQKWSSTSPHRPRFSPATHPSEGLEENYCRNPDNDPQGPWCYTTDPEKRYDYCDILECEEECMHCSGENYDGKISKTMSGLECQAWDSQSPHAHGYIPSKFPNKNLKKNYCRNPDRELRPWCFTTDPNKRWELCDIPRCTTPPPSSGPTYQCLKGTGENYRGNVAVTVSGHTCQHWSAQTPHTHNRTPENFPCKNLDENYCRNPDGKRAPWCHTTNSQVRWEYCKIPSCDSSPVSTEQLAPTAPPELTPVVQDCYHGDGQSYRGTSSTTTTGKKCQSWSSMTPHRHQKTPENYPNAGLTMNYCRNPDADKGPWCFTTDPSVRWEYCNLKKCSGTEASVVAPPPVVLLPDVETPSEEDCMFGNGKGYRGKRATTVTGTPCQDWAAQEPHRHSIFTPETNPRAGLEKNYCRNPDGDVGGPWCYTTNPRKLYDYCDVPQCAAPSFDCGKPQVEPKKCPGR
Sequence of Kallikrein (P03952 20-638): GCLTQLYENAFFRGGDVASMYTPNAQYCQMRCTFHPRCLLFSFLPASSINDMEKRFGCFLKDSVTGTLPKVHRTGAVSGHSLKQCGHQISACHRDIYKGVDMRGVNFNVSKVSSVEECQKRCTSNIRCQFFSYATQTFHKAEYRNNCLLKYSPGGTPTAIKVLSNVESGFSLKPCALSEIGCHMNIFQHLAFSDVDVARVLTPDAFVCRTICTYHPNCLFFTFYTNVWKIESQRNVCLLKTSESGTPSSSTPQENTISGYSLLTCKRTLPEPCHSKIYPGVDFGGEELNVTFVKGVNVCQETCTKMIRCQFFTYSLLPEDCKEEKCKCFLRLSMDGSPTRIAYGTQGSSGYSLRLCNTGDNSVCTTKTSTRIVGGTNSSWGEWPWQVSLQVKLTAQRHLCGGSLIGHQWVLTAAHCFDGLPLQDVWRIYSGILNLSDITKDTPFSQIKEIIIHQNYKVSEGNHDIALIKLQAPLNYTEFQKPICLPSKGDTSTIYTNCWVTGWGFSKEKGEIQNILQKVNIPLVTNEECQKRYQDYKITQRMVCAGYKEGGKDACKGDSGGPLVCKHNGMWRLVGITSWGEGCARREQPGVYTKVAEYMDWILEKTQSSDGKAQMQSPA
Sequence of Plasmin (P00747 97-810): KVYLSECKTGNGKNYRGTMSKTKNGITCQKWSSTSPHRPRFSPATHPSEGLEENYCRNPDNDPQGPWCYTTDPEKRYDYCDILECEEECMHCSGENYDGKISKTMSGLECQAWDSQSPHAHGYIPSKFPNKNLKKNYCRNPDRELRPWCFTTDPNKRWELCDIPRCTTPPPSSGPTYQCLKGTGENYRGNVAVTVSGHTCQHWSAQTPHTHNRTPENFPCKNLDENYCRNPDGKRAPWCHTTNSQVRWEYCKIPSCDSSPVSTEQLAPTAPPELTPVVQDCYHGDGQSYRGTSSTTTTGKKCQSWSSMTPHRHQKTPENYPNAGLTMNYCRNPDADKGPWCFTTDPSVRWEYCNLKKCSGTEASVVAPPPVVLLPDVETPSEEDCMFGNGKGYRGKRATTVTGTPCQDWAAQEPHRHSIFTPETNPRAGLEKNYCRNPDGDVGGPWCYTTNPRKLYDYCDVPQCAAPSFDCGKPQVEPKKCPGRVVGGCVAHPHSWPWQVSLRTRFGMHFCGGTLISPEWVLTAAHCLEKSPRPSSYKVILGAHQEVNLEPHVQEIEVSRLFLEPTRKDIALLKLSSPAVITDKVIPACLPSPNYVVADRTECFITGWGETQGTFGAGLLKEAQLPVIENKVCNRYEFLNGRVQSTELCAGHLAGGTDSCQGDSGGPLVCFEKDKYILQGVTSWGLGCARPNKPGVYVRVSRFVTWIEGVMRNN

Structure (SMILES): C[C@H](N)C(=O)N[C@@H](Cc1ccccc1)C(=O)N[C@@H](CCCNC(=N)N)B1OC2C[C@@H]3C[C@@H](C3(C)C)[C@]2(C)O1 (stereo partly shown) [OBE1999]
- IC50 [1]: 7.5 to 29.8 nM
- IC50 (Thrombin): 6.4 µM
- IC50 [2]: 7.5 to 29.8 nM
- IC50 (Enteropeptidase [3]): 33 nM
- IC50 (Kallikrein): 7.5 nM
- IC50 [4]: 0.0075 to 0.0298 µM
- IC50 (Plasmin): 29.8 nM

Structure (SMILES): CC1(C)[C@@H]2CC3OB([C@H](CCCNC(=N)N)NC(=O)CNC(=O)[C@@H](N)CCC(=O)O)O[C@@]3(C)[C@H]1C2 (stereo partly shown) [OBE2000]
- IC50 [1]: 260 nM
- IC50 (Thrombin): 3.22 µM
- IC50 enteropeptidase (Enteropeptidase [3]): low value of IC50
- IC50 (Enteropeptidase [5]): 68 nM
- IC50 thrombin [6]: high value of IC50
- IC50 [4]: 7.1 µM

Structure (SMILES): CC(=O)N[C@@H](CCC(=O)O)C(=O)NCC(=O)N[C@@H](CCCN=C(N)N)B(O)O [OBE2002, Acetyl-Glu-Gly-BoroArg]
- IC50 kallikrein [1]: low IC50 value
- IC50 (Enteropeptidase [5]): 33.6 nM
- IC50 (Trypsin): 10.5 nM
- IC50 (Kallikrein): 81.4 nM
- IC50 plasmin [4]: low IC50 value
- IC50 (Plasmin): 3800 nM
